# Laboratory results taken from US12630552B2, “Inhibitors of KRAS G12C” (BEIGENE, LTD., priority 2019, dated 2026).
# pIC50: −log10 of the molar value.
# Target: T1, KRAS (aa 1-169) G12C, C51S, C80L, C118S (Homo sapiens, UniProt P01116, C118S/C51S/C80L/G12C)
# T1 construct: The KRAS (aa 1-169) G12C, C51S, C80L, C118S with a His-tag; made in house
# Experiment: KRAS G12C SOS1-mediated nucleotide exchange / GST-cRaf RBD binding FRET assay
# Type: biochemical
# Settings: GDP-loaded KRAS G12C pre-incubated with compound at 24° C. for 3 hrs; SOS1, GTPγS and GST-cRaf RBD added; FRET 665 nm/620 nm
# Protocol: Biochemical Functional Assay:
# The KRAS (aa 1-169) G12C, C51S, C80L, C118S with a His-tag was expressed, purified and loaded with GDP in house. All protein and substrate solutions were prepared in assay buffer containing 25 mM HEPES pH7.5, 10 mM MgCl2, and 0.01% Triton X-100. Purified GDP-loaded KRAS (aa 1-169) G12C, C51S, C80L, C118S protein was pre-incubated with a serially diluted compound at 24° C. for 3 hrs. Purified SOS1 (aa 564-1049) protein, GTPγS (Sigma) and GST-cRaf RBD (aa 1-149) were then added to each well and incubated at 24° C. for additional 3 hrs. […] Following the incubation, Mab Anti-6HIS-Tb cryptate (Cisbio) and Mab Anti GST-XL665 (Cisbio) were added and further incubated at 24° C. for 3 hrs. The binding interaction between active GTPγS KRAS G12C and GST-cRaf RBD brings the Tb and XL665 into close proximity enabling an increased FRET signal (Ex337 nm, Em665 nm/620 nm). The inhibition percentage of nucleotide exchange reaction in presence of increasing concentrations of compounds was calculated based on the ratio of fluorescence at 665 nm to that at 620 nm detected on a BMG PHERAstar FSX instrument. The IC50 value of each compound was calculated from fitting the data to the four-parameter logistic model by Dotmatics.
# T1 sequence (P01116 1-169 isoform P01116-2 G12C/C51S/C80L/C118S): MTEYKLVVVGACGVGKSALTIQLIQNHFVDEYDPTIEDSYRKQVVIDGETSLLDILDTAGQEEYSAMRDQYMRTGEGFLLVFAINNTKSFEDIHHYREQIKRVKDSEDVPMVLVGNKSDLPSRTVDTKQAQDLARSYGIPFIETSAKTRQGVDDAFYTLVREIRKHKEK
row,Structure (SMILES),pIC50
1,"C=CC(=O)N1CCN(c2nc(OCC3CCCN3C)nc3c2CN(C2Cc4cccc5cccc2c45)C3)CC1CC#N (single isomer, unassigned) [Example 15 (P1)]",6.31
2,C=CC(=O)N1CCN(c2nc(OC[C@@H]3CCCN3C)nc3c2CN(C(=O)c2cccc4cccc(O)c24)C3)C[C@@H]1CC#N [Example 56],6.03
3,"C=CC(=O)N1CCN(c2nc(OC[C@@H]3CCCN3C)nc3c2CN(C(=O)c2cccc(C)c2Cl)C3)C[C@@H]1CC#N [Example 37, 2-((S)-1-acryloyl-4-(6-(2-chloro-3-methylbenzoyl)-2-(((S)-1-methylpyrrolidin-2-yl)methoxy)-6,7-dihydro-5H-pyrrolo[3,4-d]pyrimidin-4-yl)piperazin-2-yl)acetonitrile]",7.55
4,"C=CC(=O)N1CCN(c2nc(OC3CCN(C4CCOCC4)CC3)nc3c2CN(C2Cc4cccc5cccc2c45)C3)C[C@@H]1CC#N (stereo partly drawn) [Example 12, 2-((2S)-1-acryloyl-4-(6-(1,2-dihydroacenaphthylen-1-yl)-2-((1-(tetrahydro-2H-pyran-4-yl)piperidin-4-yl)oxy)-6,7-dihydro-5H-pyrrolo[3,4-d]pyrimidin-4-yl)piperazin-2-yl)acetonitrile]",6.42
5,"C=CC(=O)N1CCN(c2nc(OC[C@@H]3CCCN3C)nc3c2CN(Cc2cccc4c2CCO4)C3)C[C@@H]1CC#N [Example 21, 2-((S)-1-acryloyl-4-(6-((2,3-dihydrobenzofuran-4-yl)methyl)-2-(((S)-1-methylpyrrolidin-2-yl)methoxy)-6,7-dihydro-5H-pyrrolo[3,4-d]pyrimidin-4-yl)piperazin-2-yl)acetonitrile]",7.03
6,"C=CC(=O)N1CCN(c2nc(OC[C@@H]3CCCN3C)nc3c2CN(C(C)c2cccc4ccccc24)C3)C[C@@H]1CC#N (stereo partly drawn) [Example 11, 2-((2S)-1-acryloyl-4-(2-(((S)-1-methylpyrrolidin-2-yl)methoxy)-6-(1-(naphthalen-1-yl)ethyl)-6,7-dihydro-5H-pyrrolo[3,4-d]pyrimidin-4-yl)piperazin-2-yl)acetonitrile]",6.77
7,"C=CC(=O)N1CCN(c2nc(OC[C@@H]3CCCN3C)nc3c2CN(C(=O)Nc2cccc4ccccc24)C3)C[C@@H]1CC#N [Example 38, 4-((S)-4-acryloyl-3-(cyanomethyl)piperazin-1-yl)-2-(((S)-1-methylpyrrolidin-2-yl)methoxy)-N-(naphthalen-1-yl)-5,7-dihydro-6H-pyrrolo[3,4-d]pyrimidine-6-carboxamide]",5.80
8,"C=CC(=O)N1CCN(c2nc(OC[C@@H]3CCCN3C)nc3c2CN(c2cccc4cccc(C)c24)C3)C[C@@H]1CC#N [Example 28, 2-((S)-1-acryloyl-4-(6-(8-methylnaphthalen-1-yl)-2-(((S)-1-methylpyrrolidin-2-yl)methoxy)-6,7-dihydro-5H-pyrrolo[3,4-d]pyrimidin-4-yl)piperazin-2-yl)acetonitrile]",6.75
9,"C=CC(=O)N1CCN(c2nc(OC[C@@H]3CCCN3C)nc3c2CN(Cc2c(C)ccc4[nH]ncc24)C3)C[C@@H]1CC#N [Example 41, 2-((S)-1-acryloyl-4-(6-((5-methyl-1H-indazol-4-yl)methyl)-2-(((S)-1-methylpyrrolidin-2-yl)methoxy)-6,7-dihydro-5H-pyrrolo[3,4-d]pyrimidin-4-yl)piperazin-2-yl)acetonitrile]",7.11
10,"C=CC(=O)N1CCN(c2nc(OC[C@@H]3CCCN3C)nc3c2CN(Cc2cccc4ccccc24)C3)CC1 [Example 1, (S)-1-(4-(2-((1-methylpyrrolidin-2-yl)methoxy)-6-(naphthalen-1-ylmethyl)-6,7-dihydro-5H-pyrrolo[3,4-d]pyrimidin-4-yl)piperazin-1-yl)prop-2-en-1-one]",5.48
11,"C=CC(=O)N1CCN(c2nc(OC[C@@H]3CCCN3C)nc3cn(Cc4cccc5ccccc45)cc23)C[C@@H]1CC#N [Example 7, 2-((S)-1-acryloyl-4-(2-(((S)-1-methylpyrrolidin-2-yl)methoxy)-6-(naphthalen-1-ylmethyl)-6H-pyrrolo[3,4-d]pyrimidin-yl)piperazin-2-yl)acetonitrile]",6.76
12,"C=CC(=O)N1CCN(c2nc(OC[C@@H]3CCCN3C)nc3c2CN(Cc2cccc(C)c2C)C3)C[C@@H]1CC#N [Example 5, 2-((S)-1-acryloyl-4-(6-(2,3-dimethylbenzyl)-2-(((S)-1-methylpyrrolidin-2-yl)methoxy)-6,7-dihydro-5H-pyrrolo[3,4-d]pyrimidin-4-yl)piperazin-2-yl)acetonitrile]",7.25
13,"CN(C)C/C=C/C(=O)N1CCN(c2nc(OC[C@@H]3CCCN3C)nc3c2CN(Cc2cccc4ccccc24)C3)CC1 [Example 2, (S, E)-4-(dimethylamino)-1-(4-(2-((1-methylpyrrolidin-2-yl)methoxy)-6-(naphthalen-1-ylmethyl)-6,7-dihydro-5H-pyrrolo[3,4-d]pyrimidin-4-yl)piperazin-1-yl)but-2-en-1-one]",4.34
14,"C=CC(=O)N1CCN(c2nc(OCC3CCCN3C)nc3c2CN(C2Cc4cccc5cccc2c45)C3)CC1CC#N (single isomer, unassigned) [Example 15 (P2)]",8.28
15,"C=CC(=O)N1CCN(c2nc(OC[C@@H]3CCCN3C)nc3c2CN(Cc2c(O)cccc2F)C3)C[C@@H]1CC#N [Example 23, 2-((S)-1-acryloyl-4-(6-(2-fluoro-6-hydroxybenzyl)-2-(((S)-1-methylpyrrolidin-2-yl)methoxy)-6,7-dihydro-5H-pyrrolo[3,4-d]pyrimidin-4-yl)piperazin-2-yl)acetonitrile]",7.55
16,"C=CC(=O)N1CCN(c2nc(OC[C@@H]3CCCN3C)nc3c2CN(C(=O)c2cccc4cccc(C5CC5)c24)C3)C[C@@H]1CC#N [Example 35, 2-((S)-1-acryloyl-4-(6-(8-cyclopropyl-1-naphthoyl)-2-(((S)-1-methylpyrrolidin-2-yl)methoxy)-6,7-dihydro-5H-pyrrolo[3,4-d]pyrimidin-4-yl)piperazin-2-yl)acetonitrile]",6.59
17,"C=CC(=O)N1CCN(c2nc(OC[C@@H]3CCCN3C)nc3c2CN(C(=O)c2cccc4cccc(Cl)c24)C3)C[C@@H]1CC#N [Example 30, 2-((S)-1-acryloyl-4-(6-(8-chloro-1-naphthoyl)-2-(((S)-1-methylpyrrolidin-2-yl)methoxy)-6,7-dihydro-5H-pyrrolo[3,4-d]pyrimidin-4-yl)piperazin-2-yl)acetonitrile]",7.82
18,C=CC(=O)N1CCN(c2nc(OC[C@@H]3CCCN3C)nc3c2CN(C(=O)c2cc(O)ccc2F)C3)C[C@@H]1CC#N [Example 46],6.76
19,C=CC(=O)N1CCN(c2nc(OC[C@@H]3CCCN3C)nc3c2CN(C2Cc4cccc5cc(O)cc2c45)C3)C[C@@H]1CC#N (some centres unmarked) [Example 55],> 8.29
20,"C=CC(=O)N1CCN(c2nc(OC[C@@H]3CCCN3C)nc3c2CN(Cc2cccc4cccc(C)c24)C3)C[C@@H]1CC#N [Example 8, 2-((S)-1-acryloyl-4-(6-((8-methylnaphthalen-1-yl)methyl)-2-(((S)-1-methylpyrrolidin-2-yl)methoxy)-6,7-dihydro-5H-pyrrolo[3,4-d]pyrimidin-4-yl)piperazin-2-yl)acetonitrile]",6.31
21,"C=CC(=O)N1CCN(c2nc(OC[C@@H]3CCCN3C)nc3c2CN(c2cccc4c2CCC4)C3)C[C@@H]1CC#N [Example 27, 2-((S)-1-acryloyl-4-(6-(2,3-dihydro-1H-inden-4-yl)-2-(((S)-1-methylpyrrolidin-2-yl)methoxy)-6,7-dihydro-5H-pyrrolo[3,4-d]pyrimidin-4-yl)piperazin-2-yl)acetonitrile]",5.43
22,"C=CC(=O)N1CCN(c2nc(OC[C@@H]3CCCN3C)nc3c2CN(C2c4ccccc4-c4ccccc42)C3)C[C@@H]1CC#N [Example 40, 2-((S)-4-(6-(9H-fluoren-9-yl)-2-(((S)-1-methylpyrrolidin-2-yl)methoxy)-6,7-dihydro-5H-pyrrolo[3,4-d]pyrimidin-4-yl)-1-acryloylpiperazin-2-yl)acetonitrile]",5.82
23,"C=CC(=O)N1CCN(c2nc(N3CC(N(C)C)C3)nc3c2CN(C2Cc4cccc5cccc2c45)C3)CC1CC#N (single isomer, unassigned) [Example 16 (P1)]",5.25
24,"C=CC(=O)N1CCN(c2nc(OC3CCN(C)CC3)nc3c2CN(C2Cc4cccc5cccc2c45)C3)CC1CC#N (single isomer, unassigned) [Example 17 (P2)]",6.02
25,"C=CC(=O)N1CCN(c2nc(OC[C@@H]3CCCN3C)nc3c2CN(Cc2ccc4ccccc4c2)C3)C[C@@H]1CC#N [Example 20, 2-((S)-1-acryloyl-4-(2-(((S)-1-methylpyrrolidin-2-yl)methoxy)-6-(naphthalen-2-ylmethyl)-6,7-dihydro-5H-pyrrolo[3,4-d]pyrimidin-4-yl)piperazin-2-yl)acetonitrile]",5.54
26,"C=CS(=O)(=O)N1CCN(c2nc(OC[C@@H]3CCCN3C)nc3c2CN(Cc2cccc4ccccc24)C3)CC1 [Example 3, (S)-2-((1-methylpyrrolidin-2-yl)methoxy)-6-(naphthalen-1-ylmethyl)-4-(4-(vinylsulfonyl)piperazin-1-yl)-6,7-dihydro-5H-pyrrolo[3,4-d]pyrimidine]",4.63
